Laboratory results as given in publication PMC10216341 (Brain Sciences, 2023).
Where two headings read alike, the source gives them in different places.

Assays:
rat = settings: cited from earlier work
SH-SY5Y cells [1] = assay: Intracellular ATP levels, luminescence assay; format: cell-based, human
Experimental: (§1) SH-SY5Y cells were differentiated as described by Encinas et al. (2000) after seeding onto either poly-D-Lysine hydrobromide (PDL) (50 µg/mL) (P6407, Sigma-Aldrich, Poole, UK) -coated cell cultureware or in 96-well microtitre plates (6005649, Perkin Elmer, Groningen, The Netherlands) with 10% FBS media and after settling, cells were grown to 60% confluency.
Undifferentiated and differentiated cells that were grown in 6-well plates were treated with MTT cell viability inhibition concentrations that produced 10, 20, 50, and an 80% loss of cell viability. Intracellular ATP levels were quantified using an ATP luminescence assay kit (ATP Bioluminescence Assay Kit CLS II (product 11 699 695 001, Roche, Germany), according to the manufacturer’s protocol. ATP standards were prepared according to the kit protocol across a concentration range of 1 × 10^−4 to 1 × 10^−10 M and after the addition of luciferase reagent to each well, the luminescence was measured using a luminometric plate reader (Thermo Fisher Scientific, Fluoroskan Ascent FC, Vantaa, Finland) using an integration time of 1 s. The ATP content in control and pesticide-treated samples were interpolated from the ATP standard curve. Experiments were performed in triplicates and five individual experiments were undertaken from which a mean was calculated, with blank values subtracted.

[2] = tested on: differentiated SH-SY5Y cells; assay: Neurite extension (neurite length) in differentiated cells, microscopy; format: cell-based, human; settings: 24 h, read-out: Neurite Retraction IC50
Experimental: SH-SY5Y cells were seeded at 5 × 10^5 cells/well in 12-well poly-D-Lysine coated plates and grown for 24 h to ensure cell adhesion. Cells were then treated with pesticides in differentiation media for 24 h. Cell images were captured using a phase contrast microscope (Olympus, DP70, London, UK). Cells were considered differentiated if each neuronal cell contained at least one process that was longer than its cell body. The neurite length from 100 randomly chosen cells were measured in five selected regions of each well using the neurite tracer tool in Image J (Image J 1.49k, National Institute of Health, Bethesda, MD, USA). Results are expressed as mean percentage neurite length (±SEM) relative to vehicle-control treated cells.

SH-SY5Y cells [3] = assay: MTT cell viability assay; format: cell-based, human; settings: read-out: MTT IC50
Experimental: as §1
In brief, 3 × 10^4 cells/well were grown in laminin-coated 96-well clear-bottom tissue culture plates. Undifferentiated cells were challenged with each agent for 24 h within the concentration ranges specified by diluting each compound in the cell culture medium. Differentiated cells that were grown on 96-well plates were treated with each compound diluted in cell culture medium. After incubation with the compounds, spent media was removed and then replaced with the corresponding media for differentiated or undifferentiated cells containing 10% of 5 mg/mL MTT and incubated for 4 h. Wells that only received 10% MTT and respective growth media served as background controls. The formazan crystals generated were suspended in 1:1 DMSO and isopropanol solution and the absorbance of wells read at 570 nm using a spectrophotometer (Multiskan Spectrum, Thermo Electron Corporation, Vantaa, Finland). Experiments were performed in triplicates from which an average was taken, and blank (negative control) values were subtracted. Cell viability was expressed as a percentage of survival […] from at least five repeated experiments. The concentration of agent producing a 50% inhibition of cell viability (IC50 values) was obtained from the concentration-response curves and expressed as means ± standard error of the mean (SEM).

[4] = WHO class; cited from earlier work
SH-SY5Y cells [5] = assay: Lactate dehydrogenase (LDH) assay, extracellular LDH; format: cell-based, human
Experimental: as §1
The production of active extracellular LDH in response to pesticide exposures was measured using an LDH assay kit (ab65393, Abcam, Cambridge, UK) according to the manufacturer’s instructions. After agent treatment (1–200 µM, or vehicle control), 50 µL of spent media was removed and LDH activity was measured spectrophotometrically at 450 nm (Multiskan Spectrum, Thermo Electron Corporation, Finland). Assays were performed in triplicates, with blank values from a negative control subtracted from test values. IC50 values were obtained from the concentration-response curves and expressed as means ± standard error of the mean (SEM). Experiments were performed with an n-number of at least five.

[6] = molecular target: T1, acetylcholinesterase (AChE) (Homo sapiens, UniProt P22303); assay: cell-based; settings: 24 h
T1 construct: endogenous in cells; host or cells: SH-SY5Y human neuroblastoma cells (ECACC-94030304), undifferentiated and differentiated
Experimental: Inhibition of AChE was assessed using an Ellman’s assay modified for harvested cells [32, 33]. […] The supernatant was discarded, and the resultant cell pellet was retained and resuspended in 1 mL of potassium phosphate buffer pH 8.0. A volume of 100 µL was then assayed as a 1:1 mixture with ATCI and DTNB. […] Since the absorbance background increased with time, the associated absorbance of buffer blanks was subtracted at each time point for each data point. Corrected absorbance readings for each treatment were normalized to the means of the vehicle control and AChE activity presented as a percentage relative to the vehicle control.

[7] = Homo sapiens, differentiated SH-SY5Y cells

T1 sequence (P22303 32-614): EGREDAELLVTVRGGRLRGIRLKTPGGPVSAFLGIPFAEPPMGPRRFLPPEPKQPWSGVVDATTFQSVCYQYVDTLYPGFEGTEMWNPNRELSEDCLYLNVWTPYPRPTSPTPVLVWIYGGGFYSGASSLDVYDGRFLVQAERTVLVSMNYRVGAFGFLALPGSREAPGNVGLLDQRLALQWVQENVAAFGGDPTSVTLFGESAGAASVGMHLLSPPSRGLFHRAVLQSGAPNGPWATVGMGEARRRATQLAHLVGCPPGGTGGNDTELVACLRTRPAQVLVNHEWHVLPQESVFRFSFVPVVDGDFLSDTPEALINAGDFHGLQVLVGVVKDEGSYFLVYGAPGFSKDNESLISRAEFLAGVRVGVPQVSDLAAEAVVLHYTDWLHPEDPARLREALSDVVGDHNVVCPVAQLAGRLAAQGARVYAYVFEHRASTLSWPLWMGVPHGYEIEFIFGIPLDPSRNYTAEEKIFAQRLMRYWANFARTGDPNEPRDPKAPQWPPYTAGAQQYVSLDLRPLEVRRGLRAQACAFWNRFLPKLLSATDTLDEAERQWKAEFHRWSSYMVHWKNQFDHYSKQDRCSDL

In the case of `COP(=O)(OC)SCn1c(=O)oc2cc(Cl)cnc21` [AZO, 6-chloro-3-(dimethoxyphosphorylsulfanylmethyl)-[1,3]oxazolo[4,5-b]pyridin-2-one], the “rat oral LD50” value (rat) is listed as 1180 mg/kg, the IC50 (SH-SY5Y cells [1]; Homo sapiens, SH-SY5Y, read-out: ATP IC50, differentiated SH-SY5Y cells) is listed as 20.7 ± 0.1 µM and the IC50 (SH-SY5Y cells [1]; Homo sapiens, SH-SY5Y, read-out: ATP IC50, undifferentiated SH-SY5Y cells) is listed as 26 ± 0.6 µM. The IC50 ([2]; Homo sapiens, SH-SY5Y) was 16.5 ± 1.3 µM, the IC50 (SH-SY5Y cells [3]; Homo sapiens, SH-SY5Y, 24 h) was 26.9 ± 1.1 µM and the IC50 (SH-SY5Y cells [3]; Homo sapiens, SH-SY5Y) was 19.6 ± 0.5 µM. The hazard classification [4] was “Class II”, the IC50 (SH-SY5Y cells [5]; Homo sapiens, SH-SY5Y, 24 h, read-out: LDH IC50, differentiated SH-SY5Y cells, 24 h exposure) was 20.5 ± 1.6 µM and the IC50 (SH-SY5Y cells [5]; Homo sapiens, SH-SY5Y, 24 h, read-out: LDH IC50, undifferentiated SH-SY5Y cells, 24 h exposure) was 26.5 ± 0.9 µM. The IC50 ([6]; AChE Inhibition IC50, differentiated SH-SY5Y cells) was 0.22 µM and the IC50 ([6]; AChE Inhibition IC50, undifferentiated SH-SY5Y cells) was 0.3 µM.
In the case of `CNC(=O)O/N=C/C(C)(C)SC` [Aldicarb, [(E)-(2-methyl-2-methylsulfanylpropylidene)amino] N-methylcarbamate], the “rat oral LD50” value (rat) is listed as 0.65 mg/kg, the IC50 (SH-SY5Y cells [1]; Homo sapiens, SH-SY5Y, differentiated SH-SY5Y cells, read-out: ATP IC50) is listed as 32.4 ± 1.2 µM and the IC50 (SH-SY5Y cells [1]; Homo sapiens, SH-SY5Y, undifferentiated SH-SY5Y cells, read-out: ATP IC50) is listed as 40.2 ± 2.9 µM. It also gave an IC50 [2, 7] of 30.2 ± 4.7 µM, an IC50 (SH-SY5Y cells [3]; [7]) of 31.6 ± 2.2 µM and an IC50 (SH-SY5Y cells [3]; Homo sapiens, undifferentiated SH-SY5Y cells, 24 h exposure) of 39.6 ± 3.6 µM. The hazard classification [4] was “Class Ia”, the IC50 (SH-SY5Y cells [5]; Homo sapiens, SH-SY5Y, 24 h, differentiated SH-SY5Y cells, 24 h exposure, read-out: LDH IC50) was 29.9 ± 1.6 µM and the IC50 (SH-SY5Y cells [5]; Homo sapiens, SH-SY5Y, 24 h, undifferentiated SH-SY5Y cells, 24 h exposure, read-out: LDH IC50) was 35.4 ± 1.4 µM.
In the case of `CCOP(=O)(OCC)Oc1nc(Cl)c(Cl)cc1Cl` [CPO, diethyl (3,5,6-trichloropyridin-2-yl) phosphate], the IC50 (SH-SY5Y cells [1]; differentiated SH-SY5Y cells, read-out: ATP IC50) is reported as 18.8 ± 0.1 µM, the IC50 (SH-SY5Y cells [1]; undifferentiated SH-SY5Y cells, read-out: ATP IC50) is reported as 29.6 ± 2.1 µM and the IC50 ([2]; differentiated SH-SY5Y cells) is reported as 10.8 ± 0.1 µM. For the same compound, the IC50 (SH-SY5Y cells [3]; differentiated SH-SY5Y cells) was 17.3 ± 0.9 µM, the IC50 (SH-SY5Y cells [3]; undifferentiated SH-SY5Y cells, 24 h exposure) was 29.4 ± 2.1 µM and the IC50 (SH-SY5Y cells [5]; differentiated SH-SY5Y cells, 24 h exposure, read-out: LDH IC50) was 17.2 ± 1.1 µM. It also gave an IC50 (SH-SY5Y cells [5]; undifferentiated SH-SY5Y cells, 24 h exposure, read-out: LDH IC50) of 27.8 ± 2.1 µM.
For `CCOP(=S)(OCC)Oc1nc(Cl)c(Cl)cc1Cl` [chlorpyrifos, Chlorpyrifos], the “rat oral LD50” value (rat) is given as 82 mg/kg.
